Legend:
Type in all cases: in vivo
Quackgrass [1] = test: pre-emergent herbicidal activity test
Procedure: (§1) Table II summarizes results of tests conducted to determine the pre-emergent as well as the post-emergent herbicidal activity of the compounds. The pre-emergent test was conducted as follows:
(§2) A good grade of top soil was placed in aluminum pans and compacted to a depth of three-eighths to one-half inch from the top of the pan. On the top of the soil was placed a predetermined number of seeds or vegetative propagules of various plant species. The soil required to level fill the pans after seeding or adding vegetative propagules was weighed into a pan. A known amount of the active ingredient applied in a solvent or as a wettable powder and the soil were thoroughly mixed, and used as a cover layer for prepared pans. After treatment the pans were moved into a greenhouse bench where they were watered from below as needed to give adequate moisture for germination and growth.
(§3) A herbicial rating code was used to signify the extent of phytotoxicity of each species. The rating are defined as follows: […]

Velvetleaf [2] = test: pre-emergent herbicidal activity test
Procedure: as §1, §2, §3

Lambsquarter [3] = test: pre-emergent herbicidal activity test
Procedure: as §1, §2, §3

Canada Thistle [4] = test: pre-emergent herbicidal activity test
Procedure: as §1, §2, §3

Cocklebur [5] = test: pre-emergent herbicidal activity test
Procedure: as §1, §2, §3

Johnsongrass [6] = test: pre-emergent herbicidal activity test
Procedure: as §1, §2, §3

Barnyard grass [7] = test: pre-emergent herbicidal activity test
Procedure: as §1, §2, §3

Morningglory [8] = test: pre-emergent herbicidal activity test
Procedure: as §1, §2, §3

Smartweed [9] = test: pre-emergent herbicidal activity test
Procedure: as §1, §2, §3

Bromus tectorum [10] = test: pre-emergent herbicidal activity test
Procedure: as §1, §2, §3

Nutsedge [11] = test: pre-emergent herbicidal activity test
Procedure: as §1, §2, §3

Quackgrass [12] = test: post-emergent herbicidal activity test
Procedure: (§4) The post-emergent tests were conducted as follows. The active ingredients are applied in spray form to two or three-week old specimens of various plant species. The spray, a solution or wettable powder suspension containing the appropriate rate of active ingredient to give the desired test rate and a surfactant, is applied to the plants. The treated plants are placed in a greenhouse and unless otherwise noted approximately four weeks later the effects are observed and recorded.

Velvetleaf [13] = test: post-emergent herbicidal activity test
Procedure: as §4

Lambsquarter [14] = test: post-emergent herbicidal activity test
Procedure: as §4

Canada Thistle [15] = test: post-emergent herbicidal activity test
Procedure: as §4

Cocklebur [16] = test: post-emergent herbicidal activity test
Procedure: as §4

Johnsongrass [17] = test: post-emergent herbicidal activity test
Procedure: as §4

Barnyard grass [18] = test: post-emergent herbicidal activity test
Procedure: as §4

Morningglory [19] = test: post-emergent herbicidal activity test
Procedure: as §4

Smartweed [20] = test: post-emergent herbicidal activity test
Procedure: as §4

Bromus tectorum [21] = test: post-emergent herbicidal activity test
Procedure: as §4

Nutsedge [22] = test: post-emergent herbicidal activity test
Procedure: as §4

[23] = *11.2 Kg/Ha, observed approximately 14 days after treatment
[24] = 11.2 Kg/Ha, approximately 28 days after seeding and treating
[25] = 11.2 Kg/Ha, approximately four weeks later
Note: ranges in brackets are in %.

## Cn1cc(C(=O)OCC2CC(F)(F)C2(F)F)c(-c2cccc(C(F)(F)F)c2)n1 (stereo not shown) [Example 18]
Quackgrass [1]; [23]
  Pre-Emergent herbicidal rating, H Quackgrass: 0 (0-24)
Velvetleaf [2]; [23]
  Pre-Emergent herbicidal rating, C Velvetleaf: 1 (25-49)
Lambsquarter [3]; [23]
  Pre-Emergent herbicidal rating, E Lambsquarter: 2 (50-74)
Canada Thistle [4]; [23]
  Pre-Emergent herbicidal rating, A Canada Thistle: 1 (25-49)
Cocklebur [5]; [23]
  Pre-Emergent herbicidal rating, B Cocklebur: 0 (0-24)
Johnsongrass [6]; [23]
  Pre-Emergent herbicidal rating, I Johnsongrass: 0 (0-24)
Barnyard grass [7]; [23]
  Pre-Emergent herbicidal rating, K Barnyard grass: 1 (25-49)
Morningglory [8]; [23]
  Pre-Emergent herbicidal rating, D Morningglory: 1 (25-49)
Smartweed [9]; [23]
  Pre-Emergent herbicidal rating, F Smartweed: 2 (50-74)
Bromus tectorum [10]; [23]
  Pre-Emergent herbicidal rating, J Bromus tectorum: 1 (25-49)
Nutsedge [11]; [23]
  Pre-Emergent herbicidal rating, G Nutsedge: 0 (0-24)
Quackgrass [12]; [23]
  Post-Emergent herbicidal rating, H Quackgrass: 1 (25-49)
Velvetleaf [13]; [23]
  Post-Emergent herbicidal rating, C Velvetleaf: 2 (50-74)
Lambsquarter [14]; [23]
  Post-Emergent herbicidal rating, E Lambsquarter: 2 (50-74)
Canada Thistle [15]; [23]
  Post-Emergent herbicidal rating, A Canada Thistle: 1 (25-49)
Cocklebur [16]; [23]
  Post-Emergent herbicidal rating, B Cocklebur: 1 (25-49)
Johnsongrass [17]; [23]
  Post-Emergent herbicidal rating, I Johnsongrass: 1 (25-49)
Barnyard grass [18]; [23]
  Post-Emergent herbicidal rating, K Barnyard grass: 1 (25-49)
Morningglory [19]; [23]
  Post-Emergent herbicidal rating, D Morningglory: 2 (50-74)
Smartweed [20]; [23]
  Post-Emergent herbicidal rating, F Smartweed: 1 (25-49)
Bromus tectorum [21]; [23]
  Post-Emergent herbicidal rating, J Bromus tectorum: 1 (25-49)
Nutsedge [22]; [23]
  Post-Emergent herbicidal rating, G Nutsedge: 0 (0-24)

## CCOC(=O)c1cn(C)nc1-c1cc(C(F)(F)F)cc(C(F)(F)F)c1 [Example 10]
Quackgrass [1]; [24]
  Pre-Emergent herbicidal rating, H Quackgrass: 0 (0-24)
Quackgrass [1]; [23]
  Pre-Emergent herbicidal rating, H Quackgrass: 0 (0-24)
Velvetleaf [2]; [24]
  Pre-Emergent herbicidal rating, C Velvetleaf: 0 (0-24)
Velvetleaf [2]; [23]
  Pre-Emergent herbicidal rating, C Velvetleaf: 1 (25-49)
Lambsquarter [3]; [24]
  Pre-Emergent herbicidal rating, E Lambsquarter: 3 (75-100)
Lambsquarter [3]; [23]
  Pre-Emergent herbicidal rating, E Lambsquarter: 3 (75-100)
Canada Thistle [4]; [24]
  Pre-Emergent herbicidal rating, A Canada Thistle: 0 (0-24)
Canada Thistle [4]; [23]
  Pre-Emergent herbicidal rating, A Canada Thistle: 1 (25-49)
Cocklebur [5]; [24]
  Pre-Emergent herbicidal rating, B Cocklebur: 0 (0-24)
Cocklebur [5]; [23]
  Pre-Emergent herbicidal rating, B Cocklebur: 0 (0-24)
Johnsongrass [6]; [24]
  Pre-Emergent herbicidal rating, I Johnsongrass: 0 (0-24)
Johnsongrass [6]; [23]
  Pre-Emergent herbicidal rating, I Johnsongrass: 0 (0-24)
Barnyard grass [7]; [24]
  Pre-Emergent herbicidal rating, K Barnyard grass: 2 (50-74)
Barnyard grass [7]; [23]
  Pre-Emergent herbicidal rating, K Barnyard grass: 3 (75-100)
Morningglory [8]; [24]
  Pre-Emergent herbicidal rating, D Morningglory: 0 (0-24)
Morningglory [8]; [23]
  Pre-Emergent herbicidal rating, D Morningglory: 1 (25-49)
Smartweed [9]; [24]
  Pre-Emergent herbicidal rating, F Smartweed: 0 (0-24)
Smartweed [9]; [23]
  Pre-Emergent herbicidal rating, F Smartweed: 1 (25-49)
Bromus tectorum [10]; [24]
  Pre-Emergent herbicidal rating, J Bromus tectorum: 1 (25-49)
Bromus tectorum [10]; [23]
  Pre-Emergent herbicidal rating, J Bromus tectorum: 1 (25-49)
Nutsedge [11]; [24]
  Pre-Emergent herbicidal rating, G Nutsedge: 0 (0-24)
Nutsedge [11]; [23]
  Pre-Emergent herbicidal rating, G Nutsedge: 0 (0-24)
Quackgrass [12]; [25]
  Post-Emergent herbicidal rating, H Quackgrass: 0 (0-24)
Quackgrass [12]; [23]
  Post-Emergent herbicidal rating, H Quackgrass: 0 (0-24)
Velvetleaf [13]; [25]
  Post-Emergent herbicidal rating, C Velvetleaf: 0 (0-24)
Velvetleaf [13]; [23]
  Post-Emergent herbicidal rating, C Velvetleaf: 1 (25-49)
Lambsquarter [14]; [25]
  Post-Emergent herbicidal rating, E Lambsquarter: 2 (50-74)
Lambsquarter [14]; [23]
  Post-Emergent herbicidal rating, E Lambsquarter: 1 (25-49)
Canada Thistle [15]; [25]
  Post-Emergent herbicidal rating, A Canada Thistle: 1 (25-49)
Canada Thistle [15]; [23]
  Post-Emergent herbicidal rating, A Canada Thistle: 2 (50-74)
Cocklebur [16]; [25]
  Post-Emergent herbicidal rating, B Cocklebur: 2 (50-74)
Cocklebur [16]; [23]
  Post-Emergent herbicidal rating, B Cocklebur: 2 (50-74)
Johnsongrass [17]; [25]
  Post-Emergent herbicidal rating, I Johnsongrass: 0 (0-24)
Johnsongrass [17]; [23]
  Post-Emergent herbicidal rating, I Johnsongrass: 0 (0-24)
Barnyard grass [18]; [25]
  Post-Emergent herbicidal rating, K Barnyard grass: 1 (25-49)
Barnyard grass [18]; [23]
  Post-Emergent herbicidal rating, K Barnyard grass: 0 (0-24)
Morningglory [19]; [25]
  Post-Emergent herbicidal rating, D Morningglory: 2 (50-74)
Morningglory [19]; [23]
  Post-Emergent herbicidal rating, D Morningglory: 2 (50-74)
Smartweed [20]; [25]
  Post-Emergent herbicidal rating, F Smartweed: 0 (0-24)
Smartweed [20]; [23]
  Post-Emergent herbicidal rating, F Smartweed: 1 (25-49)
Bromus tectorum [21]; [25]
  Post-Emergent herbicidal rating, J Bromus tectorum: 0 (0-24)
Bromus tectorum [21]; [23]
  Post-Emergent herbicidal rating, J Bromus tectorum: 0 (0-24)
Nutsedge [22]; [25]
  Post-Emergent herbicidal rating, G Nutsedge: 0 (0-24)
Nutsedge [22]; [23]
  Post-Emergent herbicidal rating, G Nutsedge: 0 (0-24)

## CCCCOC(=O)c1cn(C)nc1-c1cccc(C(F)(F)F)c1 [Example 30]
Quackgrass [1]; [24]
  Pre-Emergent herbicidal rating, H Quackgrass: 0 (0-24)
Velvetleaf [2]; [24]
  Pre-Emergent herbicidal rating, C Velvetleaf: 1 (25-49)
Lambsquarter [3]; [24]
  Pre-Emergent herbicidal rating, E Lambsquarter: 3 (75-100)
Canada Thistle [4]; [24]
  Pre-Emergent herbicidal rating, A Canada Thistle: 2 (50-74)
Cocklebur [5]; [24]
  Pre-Emergent herbicidal rating, B Cocklebur: 0 (0-24)
Johnsongrass [6]; [24]
  Pre-Emergent herbicidal rating, I Johnsongrass: 0 (0-24)
Barnyard grass [7]; [24]
  Pre-Emergent herbicidal rating, K Barnyard grass: 3 (75-100)
Morningglory [8]; [24]
  Pre-Emergent herbicidal rating, D Morningglory: 0 (0-24)
Smartweed [9]; [24]
  Pre-Emergent herbicidal rating, F Smartweed: 3 (75-100)
Bromus tectorum [10]; [24]
  Pre-Emergent herbicidal rating, J Bromus tectorum: 2 (50-74)
Nutsedge [11]; [24]
  Pre-Emergent herbicidal rating, G Nutsedge: 0 (0-24)
Quackgrass [12]; [25]
  Post-Emergent herbicidal rating, H Quackgrass: 0 (0-24)
Velvetleaf [13]; [25]
  Post-Emergent herbicidal rating, C Velvetleaf: 1 (25-49)
Lambsquarter [14]; [25]
  Post-Emergent herbicidal rating, E Lambsquarter: 3 (75-99)
Canada Thistle [15]; [25]
  Post-Emergent herbicidal rating, A Canada Thistle: 0 (0-24)
Cocklebur [16]; [25]
  Post-Emergent herbicidal rating, B Cocklebur: 1 (25-49)
Johnsongrass [17]; [25]
  Post-Emergent herbicidal rating, I Johnsongrass: 1 (25-49)
Barnyard grass [18]; [25]
  Post-Emergent herbicidal rating, K Barnyard grass: 1 (25-49)
Morningglory [19]; [25]
  Post-Emergent herbicidal rating, D Morningglory: 1 (25-49)
Smartweed [20]; [25]
  Post-Emergent herbicidal rating, F Smartweed: 0 (0-24)
Bromus tectorum [21]; [25]
  Post-Emergent herbicidal rating, J Bromus tectorum: 1 (25-49)
Nutsedge [22]; [25]
  Post-Emergent herbicidal rating, G Nutsedge: 0 (0-24)
